Source: patent US8901118B2, “Compounds and methods for kinase modulation, and indications therefor” (Plexxikon Inc., priority 2010, dated 2014)

biological target: T1, BCR-NTRK1 BaF3 cells (Homo sapiens, UniProt P04629); experiment: BaF3 BCR-NTRK1 cell proliferation assay (ATPlite); format: cell-based; conditions: read-out: Inhibition of Cell Proliferation IC50, BCR/BaF3 TrkA
T1 construct: fused on or other part: P11274 (Breakpoint cluster region protein)
Protocol: Compounds are assessed in a variety of cell based assays. For example BaF3 cells engineered with any of BCR-FMS, BCR-KIT, BCR-FLT3, BCR-NTRK1, BCR-NTRK2, and BCR-NTRK3, are used in cell proliferation assays to assess inhibitory activity of Fms, Kit, Flt-3, TrkA, TrkB, and TrkC, respectively. An MV-4-11 (leukemia) cell proliferation assay is used to assess inhibitory activity in Flt-3, and SKNSH (human neuroblastoma) cell proliferation assay is used to assess efficacy of Fms/Trk inhibitors. Additional cells may be assayed similarly to assess the efficacy of Fms/Trk inhibitors, such as MiaPaCa (human pancreatic cancer) and Capan-1 (human pancreatic carcinoma) cells. Reagent and assay conditions are as follows: • BaF3 cells: • Maintained in RPMI containing 10% FBS, 1% PenStrep, 1% NEAA, and 1% L-Glutamine, supplemented with 1 mg/mL G418 and 5% WEHI-CM (or recombinant murine IL-3). • Confluent cells are split 1:50 to 1:100 every 3-4 days. • MV-4-11 cells: • Maintained in Iscove's Modified Dulbecco's Medium containing 10% FBS. • Confluent cells are split 1:4 every 3-4 days. • SKNSH cells: RPMI containing 10% FBS. On day 1, cells are counted, then centrifuged in a conical tube for 5 minutes at 1000 rpm. The supernatant is removed and cells are re-suspended as follows: • BaF3: resuspend in growth media +1 mg/mL G418 (without WEHFIL-3) to 2×10^5 cells/mL. • MV-4-11: resuspend in growth media to 5×10^5 cells/mL. • SKNSH: resuspend in growth media to 2×10^4 cells/mL. The cells are plated (50 μL, 150 μL for SKNSH cells) in each well of a 96-well dish (Corning 3610) and incubated at 37° C. in 5% CO2 overnight, cells plated to a final concentration of cells as follows: • BaF3: 10,000 cells per well. • MV-4-11: 25,000 cells per well. • SKNSH: 3,000 cells per well. On day 2, compound at a maximum concentration of 5 mM is serially diluted 1:3 for a total of 8 point titration with DMSO as a control. A 1 μL aliquot of each dilution point is added to 249 μL growth media and 50 μL is added to a well containing cells, providing 10 μM compound for the maximum concentration point. The cells are incubated for 3 days at 37° C. in 5% CO2. For SKNSH cells, a 0.75 μL aliquot of appropriate dilution in DMSO is added to 150 μL of cells. On day 5, ATPlite 1 step Luminescence Assay System (Perkin Elmer #6016739) is brought to room temperature along with the cell cultures. ATPlite is added to each well as follows: • BaF3: 25 μL per well. • MV-4-11: 40 μL per well. • SKNSH: 20 μL per well. The cells are incubated at room temperature for 10 minutes, then luminescence is read on Safire reader. The measured luminescence correlates directly with cell number, such that the reading as a function of compound concentration is used to determine the IC50 value.
It is understood that the results of these assays may vary as assay conditions are varied. Inhibition levels determined under the conditions described herein represent a relative activity for the compounds tested under the specific conditions employed. The cell based assays are likely to show variability due to the complexity of the system and the sensitivity thereof to any changes in the assay conditions. […] Results for compounds that are tested and show substantially no inhibition below the highest tested concentration are represented as “-” in the tables below. In some instances, the compounds were not tested in all of the assays, or assay results were not valid, as indicated by NA in the tables below.

T1 sequence (P04629 510-781): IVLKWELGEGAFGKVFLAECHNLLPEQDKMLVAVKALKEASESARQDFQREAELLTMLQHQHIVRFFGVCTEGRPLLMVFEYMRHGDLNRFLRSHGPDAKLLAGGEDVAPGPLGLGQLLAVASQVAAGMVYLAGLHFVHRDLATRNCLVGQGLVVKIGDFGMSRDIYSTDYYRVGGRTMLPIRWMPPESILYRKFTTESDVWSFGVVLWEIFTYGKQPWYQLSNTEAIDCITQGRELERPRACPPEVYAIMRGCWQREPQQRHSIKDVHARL

Question: Which IC50 does the source give for Cc1ccc(Nc2ccc(C(=O)c3c[nH]c4ncnc(NCC5CC5)c34)c(F)n2)cn1 [Compound P-4113, [4-(cyclopropylmethylamino)-7H-pyrrolo[2,3-d]pyrimidin-5-yl]-[2-fluoro-6-[(6-methyl-3-pyridyl)amino]-3-pyridyl]methanone] here?
Answer: < 100 nM

Question: How did the IC50 turn out when CCCNc1ncnc2[nH]cc(C(=O)c3ccc(Nc4ccc(C)nc4)nc3F)c12 [Compound P-4114, [2-fluoro-6-[(6-methyl-3-pyridyl)amino]-3-pyridyl]-[4-(propylamino)-7H-pyrrolo[2,3-d]pyrimidin-5-yl]methanone] was run?
Answer: < 10 nM

Question: With CNc1ncnc2[nH]cc(C(=O)c3ccc(Nc4ccc(C)nc4)nc3F)c12 [Compound P-4115, [2-fluoro-6-[(6-methyl-3-pyridyl)amino]-3-pyridyl]-[4-(methylamino)-7H-pyrrolo[2,3-d]pyrimidin-5-yl]methanone] as the molecule, how does the IC50 read?
Answer: < 100 nM

Question: How did the IC50 turn out when COc1ccc(Nc2ccc(C(=O)c3c[nH]c4ncnc(NC5CCCC5)c34)c(F)n2)cn1 [Compound P-4075, [4-(cyclopentylamino)-7H-pyrrolo[2,3-d]pyrimidin-5-yl]-[2-fluoro-6-[(6-methoxy-3-pyridyl)amino]-3-pyridyl]methanone] was run?
Answer: < 10 nM

Question: How did the IC50 turn out when Cc1ccc(Nc2ccc(C(=O)c3c[nH]c4ncnc(NC5CCCCC5)c34)c(F)n2)cn1 [Compound P-4111, [4-(cyclohexylamino)-7H-pyrrolo[2,3-d]pyrimidin-5-yl]-[2-fluoro-6-[(6-methyl-3-pyridyl)amino]-3-pyridyl]methanone] was run?
Answer: < 10 nM

Question: CCCNc1ncnc2[nH]cc(C(=O)c3ccc(Nc4ccc(OC)nc4)nc3F)c12 [Compound P-4068, [2-fluoro-6-[(6-methoxy-3-pyridyl)amino]-3-pyridyl]-[4-(propylamino)-7H-pyrrolo[2,3-d]pyrimidin-5-yl]methanone] was tested. Which IC50 did it give?
Answer: < 10 nM

Question: COc1ccc(Nc2ccc(C(=O)c3c[nH]c4ncnc(N5CCCCC5)c34)c(F)n2)cn1 [Compound P-4069, [2-fluoro-6-[(6-methoxy-3-pyridyl)amino]-3-pyridyl]-[4-(1-piperidyl)-7H-pyrrolo[2,3-d]pyrimidin-5-yl]methanone] was tested. Which IC50 did it give?
Answer: > 1000 nM

Question: Which IC50 does the source give for Fc1ccccc1Nc1ncc(Cc2c[nH]c3ncc(Cl)cc23)cn1 [Compound P-3014, [5-(5-Chloro-1H-pyrrolo[2,3-b]pyridin-3-ylmethyl)-pyrimidin-2-yl]-(2-fluoro-phenyl)-amine] here?
Answer: > 10000 nM

Question: For COc1ccc(Nc2ccc(C(=O)c3c[nH]c4ncnc(NCc5ccc(C(F)(F)F)nc5)c34)c(F)n2)cn1 [Compound P-4071, [2-fluoro-6-[(6-methoxy-3-pyridyl)amino]-3-pyridyl]-[4-[[6-(trifluoromethyl)-3-pyridyl]methylamino]-7H-pyrrolo[2,3-d]pyrimidin-5-yl]methanone], which IC50 is on record?
Answer: < 100 nM

Question: With Fc1ccc(Nc2ncc(Cc3c[nH]c4ncc(Cl)cc34)cn2)cc1 [Compound P-3012, [5-(5-Chloro-1H-pyrrolo[2,3-b]pyridin-3-ylmethyl)-pyrimidin-2-yl]-(4-fluoro-phenyl)-amine] as the molecule, how does the IC50 read?
Answer: < 1000 nM

Question: Which IC50 does the source give for CNc1ncnc2[nH]cc(C(=O)c3ccc(Nc4ccc(OC)nc4)nc3F)c12 [Compound P-4083, [2-fluoro-6-[(6-methoxy-3-pyridyl)amino]-3-pyridyl]-[4-(methylamino)-7H-pyrrolo[2,3-d]pyrimidin-5-yl]methanone] here?
Answer: < 10 nM

Question: For CNc1ncnc2[nH]cc(C(=O)c3ccc(Nc4ccc(OC)nc4)nc3OC)c12 [Compound P-4085, [2-methoxy-6-[(6-methoxy-3-pyridyl)amino]-3-pyridyl]-[4-(methylamino)-7H-pyrrolo[2,3-d]pyrimidin-5-yl]methanone], which IC50 is on record?
Answer: < 1000 nM

Question: COc1ccc(Nc2ccc(C(=O)c3c[nH]c4ncnc(NCC5CC5)c34)c(F)n2)cn1 [Compound P-4067, [4-(cyclopropylmethylamino)-7H-pyrrolo[2,3-d]pyrimidin-5-yl]-[2-fluoro-6-[(6-methoxy-3-pyridyl)amino]-3-pyridyl]methanone] was tested. Which IC50 did it give?
Answer: < 10 nM

Question: CCc1ccc(Nc2ccc(C(=O)c3c[nH]c4ncnc(NC5CC5)c34)c(F)n2)cn1 [Compound P-4125, [4-(cyclopropylamino)-7H-pyrrolo[2,3-d]pyrimidin-5-yl]-[6-[(6-ethyl-3-pyridyl)amino]-2-fluoro-3-pyridyl]methanone] was tested. Which IC50 did it give?
Answer: < 10 nM

Question: Which IC50 does the source give for O=C(c1ccc(NC2CCC(F)(F)CC2)nc1)c1c[nH]c2ncnc(NCC(F)(F)F)c12 [Compound P-4087, [6-[(4,4-difluorocyclohexyl)amino]-3-pyridyl]-[4-(2,2,2-trifluoroethylamino)-7H-pyrrolo[2,3-d]pyrimidin-5-yl]methanone] here?
Answer: < 1000 nM

Question: For COc1ccc(Nc2ccc(C(=O)c3c[nH]c4ncnc(NCC5CCCO5)c34)c(F)n2)cn1 (stereo not drawn) [Compound P-4073, [2-fluoro-6-[(6-methoxy-3-pyridyl)amino]-3-pyridyl]-[4-(tetrahydrofuran-2-ylmethylamino)-7H-pyrrolo[2,3-d]pyrimidin-5-yl]methanone], which IC50 is on record?
Answer: < 100 nM

Question: For COc1ccc(Nc2ccc(C(=O)c3c[nH]c4ncnc(N[C@@H](C)c5ccc(F)cc5)c34)c(F)n2)cn1 [Compound P-4072, [2-fluoro-6-[(6-methoxy-3-pyridyl)amino]-3-pyridyl]-[4-[[(1S)-1-(4-fluorophenyl)ethyl]amino]-7H-pyrrolo[2,3-d]pyrimidin-5-yl]methanone], which IC50 is on record?
Answer: < 10 nM

Question: Which IC50 does the source give for O=C(c1ccc(Nc2ccc(C3CC3)nc2)nc1F)c1c[nH]c2ncnc(NC3CC3)c12 [Compound P-4093, [4-(cyclopropylamino)-7H-pyrrolo[2,3-d]pyrimidin-5-yl]-[6-[(6-cyclopropyl-3-pyridyl)amino]-2-fluoro-3-pyridyl]methanone] here?
Answer: < 10 nM

Question: Which IC50 does the source give for COCCCNc1ncnc2[nH]cc(C(=O)c3ccc(Nc4ccc(OC)nc4)nc3F)c12 [Compound P-4079, [2-fluoro-6-[(6-methoxy-3-pyridyl)amino]-3-pyridyl]-[4-(3-methoxypropylamino)-7H-pyrrolo[2,3-d]pyrimidin-5-yl]methanone] here?
Answer: < 10 nM

Question: With O=C(c1ccc(NC2CCC(F)(F)CC2)nc1)c1c[nH]c2ncnc(NC3CC3)c12 [Compound P-4088, [4-(cyclopropylamino)-7H-pyrrolo[2,3-d]pyrimidin-5-yl]-[6-[(4,4-difluorocyclohexyl)amino]-3-pyridyl]methanone] as the molecule, how does the IC50 read?
Answer: < 100 nM

Question: With COc1ccc(Nc2ccc(C(=O)c3c[nH]c4ncnc(NC5CCC5)c34)c(F)n2)cn1 [Compound P-4076, [4-(cyclobutylamino)-7H-pyrrolo[2,3-d]pyrimidin-5-yl]-[2-fluoro-6-[(6-methoxy-3-pyridyl)amino]-3-pyridyl]methanone] as the molecule, how does the IC50 read?
Answer: < 10 nM

Question: Which IC50 does the source give for CC1CCC(Nc2ncc(Cc3c[nH]c4ncc(Cl)cc34)cn2)CC1 (stereo not drawn) [Compound P-3009, [5-(5-Chloro-1H-pyrrolo[2,3-b]pyridin-3-ylmethyl)-pyrimidin-2-yl]-(4-methyl-cyclohexyl)-amine] here?
Answer: > 10000 nM

Question: With CCc1ccc(Nc2ccc(C(=O)c3c[nH]c4ncnc(NC5CCOCC5)c34)c(F)n2)cn1 [Compound P-4116, [6-[(6-ethyl-3-pyridyl)amino]-2-fluoro-3-pyridyl]-[4-(tetrahydropyran-4-ylamino)-7H-pyrrolo[2,3-d]pyrimidin-5-yl]methanone] as the molecule, how does the IC50 read?
Answer: < 10 nM

Question: Which IC50 does the source give for CCN1CCC(Nc2ncnc3[nH]cc(C(=O)c4ccc(Nc5ccc(OC)nc5)nc4F)c23)CC1 [Compound P-4074, [4-[(1-ethyl-4-piperidyl)amino]-7H-pyrrolo[2,3-d]pyrimidin-5-yl]-[2-fluoro-6-[(6-methoxy-3-pyridyl)amino]-3-pyridyl]methanone] here?
Answer: < 100 nM
